Test results published in patent EP4786487A1, “PEPTIDE” (Peptidream Inc, priority 2023, dated 2025).
Starred links: 1 amine or outer side, 2 acyl side, 3 side chain; linkers in the order of their positions; H or OH if unused. Positions of bridges follow the written chain, without caps; N, C: chain ends. Non-standard residues stand in square brackets, D forms with d. Residues, ends and D or L forms follow the SMILES beside them. *: point of attachment. Phe(4-(4-pyridyl)) = N[C@@H](Cc1ccc(-c2ccncc2)cc1)C(=O)O; Phe(3-OCH2COOH) = N[C@@H](Cc1cccc(OCC(=O)O)c1)C(=O)O; Phe(4-COOH) = N[C@@H](Cc1ccc(C(=O)O)cc1)C(=O)O; Bip = N[C@@H](Cc1ccc(-c2ccccc2)cc1)C(=O)O; Gly(N(CH2)3COOH) = O=C(O)CCCNCC(=O)O; NMeY = CN[C@@H](Cc1ccc(O)cc1)C(=O)O; X1 = CCCCCCC[C@H](N[*:1])C(=O)[*:2]; NMeF = CN[C@@H](Cc1ccccc1)C(=O)O; NMeD = CN[C@@H](CC(=O)O)C(=O)O; Ahp(2) = CCCCC[C@H](N)C(=O)O; Carboxymethyl = O=C(O)C*; NMeA = CN[C@@H](C)C(=O)O; Sar = CNCC(=O)O

Assays:
Type in all cases: cell-based
Myostatin [1] = biological target: T1, Myostatin (Homo sapiens, UniProt O14793); assay: Reporter gene assay for myostatin signaling in HepG2 cell line, Evaluation Procedure (1), myostatin inhibition; conditions: Method A: Myostatin 10 ng/mL; read-out: IC50 (Luciferase) Myostatin HepG2
T1 construct: active myostatin (also called mature myostatin) is a homodimer consisting of two C-terminal growth factor domains; purchased R&D systems 788-G8/CF
T1 sequence (O14793 267-375): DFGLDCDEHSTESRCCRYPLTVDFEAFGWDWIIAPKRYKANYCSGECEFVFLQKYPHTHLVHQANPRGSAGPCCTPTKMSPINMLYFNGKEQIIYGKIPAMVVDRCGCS
How it was run: (§1)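 HepG2 cells transfected with pGL3(CAGA)12-luciferase reporter, serum-starved in 0.1% BSA medium, then stimulated with myostatin or GDF-11 plus 4-fold peptide dilutions (0.006–100 nmol/L for myostatin, 0.12–2000 nmol/L for GDF-11) for 20–24 h at 37 °C. Luminescence read with One-Glo; IC50 calculated.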

Myostatin [2] = assay: as above; conditions: Method A; GDF-11 IC50 versus Myostatin IC50
How it was run: as §1

GDF-11 = biological target: T2, GDF-11 (Homo sapiens, UniProt O95390); assay: Reporter gene assay for myostatin signaling in HepG2 cell line, Evaluation Procedure (1), GDF-11 inhibition; conditions: Method A: GDF-11 10 ng/mL; read-out: IC50 (Luciferase) GDF-11 HepG2
T2 construct: purchased R&D systems 1958-GD-G8/CF
T2 sequence (O95390 299-407): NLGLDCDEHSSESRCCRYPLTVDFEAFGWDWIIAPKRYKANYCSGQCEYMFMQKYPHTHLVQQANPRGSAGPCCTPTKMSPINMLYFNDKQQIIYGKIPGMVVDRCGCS
How it was run: as §1

| IC50 (Myostatin [1]) [µM] | IC50 (GDF-11) [µM] | Structure (SMILES) | Selectivity (Myostatin [2]) |
| --- | --- | --- | --- |
| 0.0273 | 3.05 | CC[C@H](C)[C@@H]1NC(=O)[C@H](Cc2ccccc2)N(C)C(=O)[C@H](Cc2ccc(O)cc2)NC(=O)[C@H](Cc2ccc(-c3ccncc3)cc2)NC(=O)[C@H](C)NC(=O)CN(CCCC(=O)O)C(=O)CSC[C@H](C(=O)O)NC(=O)[C@H](Cc2ccccc2)N(C)C(=O)[C@H](C)N(C)C(=O)[C@H](CC(C)C)NC(=O)[C@H](Cc2ccccc2)N(C)C(=O)[C@H](CCCNC(=N)N)NC(=O)[C@H](Cc2ccc(OCC(=O)O)cc2)NC(=O)[C@H](Cc2cccc(OCC(=O)O)c2)NC(=O)CN(C)C1=O [Myostatin_99_v84] ({CH2CO}-[Gly(N(CH2)3COOH)]A[Phe(4-(4-pyridyl))]Y[NMeF]I[Sar][Phe(3-OCH2COOH)]Y(Carboxymethyl)R[NMeF]L[NMeA][NMeF][dC]-OH; thioether N-15) | 112 |
| 0.0135 | 3.37 | CC[C@H](C)[C@@H]1NC(=O)[C@H](Cc2ccccc2)N(C)C(=O)[C@H](Cc2ccc(O)cc2)NC(=O)[C@H](Cc2ccc(-c3ccccc3)cc2)NC(=O)[C@H](C)NC(=O)CN(CCCC(=O)O)C(=O)CSC[C@H](C(=O)O)NC(=O)[C@H](Cc2ccccc2)N(C)C(=O)[C@H](C)N(C)C(=O)[C@H](CC(C)C)NC(=O)[C@H](Cc2ccccc2)N(C)C(=O)[C@H](CCCNC(=N)N)NC(=O)[C@H](Cc2ccc(OCC(=O)O)cc2)NC(=O)[C@H](Cc2cccc(OCC(=O)O)c2)NC(=O)[C@H](C)N(C)C1=O [Myostatin_99_v85] ({CH2CO}-[Gly(N(CH2)3COOH)]A[Bip]Y[NMeF]I[NMeA][Phe(3-OCH2COOH)]Y(Carboxymethyl)R[NMeF]L[NMeA][NMeF][dC]-OH; thioether N-15) | 250 |
| 0.0104 | 1.65 | CC[C@H](C)[C@@H]1NC(=O)[C@H](Cc2ccccc2)N(C)C(=O)[C@H](Cc2ccc(O)cc2)NC(=O)[C@H](Cc2ccc(-c3ccccc3)cc2)NC(=O)[C@H](C)NC(=O)CN(CCCC(=O)O)C(=O)CSC[C@H](C(=O)O)NC(=O)[C@H](Cc2ccccc2)N(C)C(=O)[C@H](C)N(C)C(=O)[C@H](CC(C)C)NC(=O)[C@H](Cc2ccccc2)N(C)C(=O)[C@H](CCCNC(=N)N)NC(=O)[C@H](Cc2ccc(OCC(=O)O)cc2)NC(=O)[C@H](Cc2cccc(OCC(=O)O)c2)NC(=O)CN(C)C1=O [Myostatin_99_v86] ({CH2CO}-[Gly(N(CH2)3COOH)]A[Bip]Y[NMeF]I[Sar][Phe(3-OCH2COOH)]Y(Carboxymethyl)R[NMeF]L[NMeA][NMeF][dC]-OH; thioether N-15) | 159 |
| 0.0723 | 7.38 | CC[C@H](C)[C@@H]1NC(=O)[C@H](Cc2ccccc2)N(C)C(=O)[C@H](Cc2ccc(O)cc2)NC(=O)[C@H](Cc2ccc(-c3ccncc3)cc2)NC(=O)CNC(=O)CN(CCCC(=O)O)C(=O)CSC[C@H](C(=O)O)NC(=O)[C@H](Cc2ccccc2)N(C)C(=O)[C@H](C)N(C)C(=O)[C@H](CC(C)C)NC(=O)[C@H](Cc2ccccc2)N(C)C(=O)[C@H](CCCNC(=N)N)NC(=O)[C@H](Cc2ccc(OCC(=O)O)cc2)NC(=O)[C@H](Cc2cccc(OCC(=O)O)c2)NC(=O)[C@H](C)N(C)C1=O [Myostatin_99_v91] ({CH2CO}-[Gly(N(CH2)3COOH)]G[Phe(4-(4-pyridyl))]Y[NMeF]I[NMeA][Phe(3-OCH2COOH)]Y(Carboxymethyl)R[NMeF]L[NMeA][NMeF][dC]-OH; thioether N-15) | 102 |
| 0.0781 | 3.88 | CC[C@H](C)[C@@H]1NC(=O)[C@H](Cc2ccccc2)N(C)C(=O)[C@H](Cc2ccc(O)cc2)NC(=O)[C@H](Cc2ccc(-c3ccncc3)cc2)NC(=O)CNC(=O)CN(CCCC(=O)O)C(=O)CSC[C@H](C(=O)O)NC(=O)[C@H](Cc2ccccc2)N(C)C(=O)[C@H](C)N(C)C(=O)[C@H](CC(C)C)NC(=O)[C@H](Cc2ccccc2)N(C)C(=O)[C@H](CCCNC(=N)N)NC(=O)[C@H](Cc2ccc(OCC(=O)O)cc2)NC(=O)[C@H](Cc2cccc(OCC(=O)O)c2)NC(=O)CN(C)C1=O [Myostatin_99_v92] ({CH2CO}-[Gly(N(CH2)3COOH)]G[Phe(4-(4-pyridyl))]Y[NMeF]I[Sar][Phe(3-OCH2COOH)]Y(Carboxymethyl)R[NMeF]L[NMeA][NMeF][dC]-OH; thioether N-15) | 50 |
| 0.0888 | 26.3 | CC[C@H](C)[C@@H]1NC(=O)[C@H](Cc2ccccc2)N(C)C(=O)[C@H](Cc2ccc(O)cc2)NC(=O)[C@H](Cc2ccc(-c3ccncc3)cc2)NC(=O)[C@H](C)NC(=O)[C@H](CC(=O)O)N(C)C(=O)CSC[C@H](C(=O)O)NC(=O)[C@H](Cc2ccccc2)N(C)C(=O)[C@H](C)N(C)C(=O)[C@H](CC(C)C)NC(=O)[C@H](Cc2ccccc2)N(C)C(=O)[C@H](CCCNC(=N)N)NC(=O)[C@H](Cc2ccc(OCC(=O)O)cc2)NC(=O)[C@H](Cc2cccc(OCC(=O)O)c2)NC(=O)CN(C)C1=O [Myostatin_99_v96] ({CH2CO}-[NMeD]A[Phe(4-(4-pyridyl))]Y[NMeF]I[Sar][Phe(3-OCH2COOH)]Y(Carboxymethyl)R[NMeF]L[NMeA][NMeF][dC]-OH; thioether N-15) | 296 |
| 0.0028 | 0.466 | CC[C@H](C)[C@@H]1NC(=O)[C@H](Cc2ccccc2)N(C)C(=O)[C@H](Cc2ccc(O)cc2)NC(=O)[C@H](Cc2ccc(-c3ccncc3)cc2)NC(=O)[C@H](C)NC(=O)[C@H](C)NC(=O)CSC[C@H](C(=O)O)NC(=O)[C@H](Cc2ccccc2)N(C)C(=O)[C@H](C)N(C)C(=O)[C@H](CC(C)C)NC(=O)[C@H](Cc2ccccc2)N(C)C(=O)[C@H](CCCNC(=N)N)NC(=O)[C@H](Cc2ccc(OCC(=O)O)cc2)NC(=O)[C@H](Cc2cccc(OCC(=O)O)c2)NC(=O)CN(C)C1=O [Myostatin_99_v107] ({CH2CO}-AA[Phe(4-(4-pyridyl))]Y[NMeF]I[Sar][Phe(3-OCH2COOH)]Y(Carboxymethyl)R[NMeF]L[NMeA][NMeF][dC]-OH; thioether N-15) | 166 |
| 0.0036 | 0.374 | CC[C@H](C)[C@@H]1NC(=O)[C@H](Cc2ccccc2)N(C)C(=O)[C@H](Cc2ccc(O)cc2)NC(=O)[C@H](Cc2ccc(-c3ccccc3)cc2)NC(=O)[C@H](C)NC(=O)[C@H](C)NC(=O)CSC[C@H](C(=O)O)NC(=O)[C@H](Cc2ccccc2)N(C)C(=O)[C@H](C)N(C)C(=O)[C@H](CC(C)C)NC(=O)[C@H](Cc2ccccc2)N(C)C(=O)[C@H](CCCNC(=N)N)NC(=O)[C@H](Cc2ccc(OCC(=O)O)cc2)NC(=O)[C@H](Cc2cccc(OCC(=O)O)c2)NC(=O)CN(C)C1=O [Myostatin_99_v108] ({CH2CO}-AA[Bip]Y[NMeF]I[Sar][Phe(3-OCH2COOH)]Y(Carboxymethyl)R[NMeF]L[NMeA][NMeF][dC]-OH; thioether N-15) | 104 |
| 0.0054 | 1.96 | CCCCC[C@@H]1NC(=O)[C@H](Cc2ccccc2)N(C)C(=O)[C@H](CCCNC(=N)N)NC(=O)[C@H](Cc2ccc(C(=O)O)cc2)NC(=O)[C@H](Cc2cccc(OCC(=O)O)c2)NC(=O)CN(C)C(=O)[C@H]([C@@H](C)CC)NC(=O)[C@H](Cc2ccc(O)cc2)N(C)C(=O)[C@H](Cc2ccc(O)cc2)NC(=O)[C@H](Cc2ccc(-c3ccccc3)cc2)NC(=O)[C@H](C)NC(=O)CN(CCCC(=O)O)C(=O)CSC[C@H](C(=O)O)NC(=O)[C@H](Cc2ccccc2)N(C)C(=O)[C@H](C)N(C)C1=O [Myostatin_99_v116] ({CH2CO}-[Gly(N(CH2)3COOH)]A[Bip]Y[NMeY]I[Sar][Phe(3-OCH2COOH)][Phe(4-COOH)]R[NMeF][Ahp(2)][NMeA][NMeF][dC]-OH; thioether N-15) | 364 |
| 0.0017 | 0.713 | CCCCCCC[C@@H]1NC(=O)[C@H](Cc2ccccc2)N(C)C(=O)[C@H](CCCNC(=N)N)NC(=O)[C@H](Cc2ccc(C(=O)O)cc2)NC(=O)[C@H](Cc2cccc(OCC(=O)O)c2)NC(=O)CN(C)C(=O)[C@H]([C@@H](C)CC)NC(=O)[C@H](Cc2ccc(O)cc2)N(C)C(=O)[C@H](Cc2ccc(O)cc2)NC(=O)[C@H](Cc2ccc(-c3ccccc3)cc2)NC(=O)[C@H](C)NC(=O)CN(CCCC(=O)O)C(=O)CSC[C@H](C(=O)O)NC(=O)[C@H](Cc2ccccc2)N(C)C(=O)[C@H](C)N(C)C1=O [Myostatin_99_v117] ({CH2CO}-[Gly(N(CH2)3COOH)]A[Bip]Y[NMeY]I[Sar][Phe(3-OCH2COOH)][Phe(4-COOH)]R[NMeF][X1][NMeA][NMeF][dC]-OH; thioether N-15) | 419 |
| 0.0381 | 7.39 | CC[C@H](C)[C@@H]1NC(=O)[C@H](Cc2ccccc2)N(C)C(=O)[C@H](Cc2ccc(O)cc2)NC(=O)[C@H](Cc2ccc(-c3ccncc3)cc2)NC(=O)[C@H](C)NC(=O)CN(CCCC(=O)O)C(=O)CSC[C@H](C(N)=O)NC(=O)[C@H](Cc2ccccc2)N(C)C(=O)[C@H](C)N(C)C(=O)[C@H](CC(C)C)NC(=O)[C@H](Cc2ccccc2)N(C)C(=O)[C@H](CCCNC(=N)N)NC(=O)[C@H](Cc2ccc(OCC(=O)O)cc2)NC(=O)[C@H](Cc2cccc(OCC(=O)O)c2)NC(=O)[C@H](C)N(C)C1=O [Myostatin_99_v123] ({CH2CO}-[Gly(N(CH2)3COOH)]A[Phe(4-(4-pyridyl))]Y[NMeF]I[NMeA][Phe(3-OCH2COOH)]Y(Carboxymethyl)R[NMeF]L[NMeA][NMeF][dC]-NH2; thioether N-15) | 194 |
